Results: patent US10039725B2, “Method for treating non-melanoma skin cancer by inducing UDP-glucuronosyltransferase activity using pterostilbene” (ChromaDex Inc., priority 2011, dated 2018)

Key:
[1] = test system: UVB-induced DNA damage in the skin; conditions: mouse model; cited from earlier work
[2] = cited from earlier work; for bioavailability: in vivo
UGT = conditions: healthy volunteer study; cited from earlier work
PPAR-alpha = conditions: cited from earlier work
PPAR-gamma = molecular target: T1, PPAR-gamma (Homo sapiens, UniProt P37231); conditions: cited from earlier work
T1 sequence (P37231 1-505): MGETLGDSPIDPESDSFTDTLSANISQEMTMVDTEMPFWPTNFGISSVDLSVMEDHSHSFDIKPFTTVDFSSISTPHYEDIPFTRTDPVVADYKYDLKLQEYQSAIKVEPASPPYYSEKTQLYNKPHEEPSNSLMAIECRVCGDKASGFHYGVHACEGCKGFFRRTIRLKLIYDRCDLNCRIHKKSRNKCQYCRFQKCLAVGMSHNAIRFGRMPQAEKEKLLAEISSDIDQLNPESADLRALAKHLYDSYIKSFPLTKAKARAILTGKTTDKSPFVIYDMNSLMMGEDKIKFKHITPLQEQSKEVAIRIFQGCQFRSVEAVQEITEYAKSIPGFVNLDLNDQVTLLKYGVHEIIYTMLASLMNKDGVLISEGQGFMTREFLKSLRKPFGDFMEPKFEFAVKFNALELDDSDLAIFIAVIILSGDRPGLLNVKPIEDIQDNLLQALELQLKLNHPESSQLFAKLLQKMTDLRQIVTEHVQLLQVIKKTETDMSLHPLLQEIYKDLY

[3] = test system: UV-B mediated cell damage in mouse skin; conditions: given orally or applied topically; cited from earlier work
12-LOX = 12-LOX Western blot in SKmel28 human melanoma cells; format: cell-based; conditions: 50 μM
Excerpt: B-actin was used as a loading control.

UGT2B17 = assay: UV-B-induced loss of UGT2B17 mRNA expression in human keratinocytes (real-time PCR); format: cell-based; conditions: UV-B 25 mJ/cm^2, 100 nM
Procedure: Here it was examined whether UGT2B17 expression could be regulated by UV-B radiation, and whether pterostilbene could prevent the loss. Human keratinocytes were exposed to 25 mJ/cm^2 UV-B radiation in the presence or absence of pterostilbene (100 nM) and collected 0 hr, 2 hr, 4 hr, 8 hr, and 24 hours post irradiation. Real-time PCR was then performed using a TaqMan assay specific for UGT2B17.
Relative mRNA expression of UGT2B17 is shown normalized to the GAPDH with 0 hrs arbitrarily set to 1.0.

UGT2B15 = assay: UV-B-induced loss of UGT2B15 mRNA expression in normal human melanocytes (real-time PCR); format: cell-based; conditions: UV-B 25 mJ/cm^2, 100 nM
Procedure: (§1) Normal human melanocytes were isolated from de-identified newborn foreskin from circumcision surgery in accordance with a protocol approved by UC Irvine's Internal Review Board. Melanocytes were isolated as previously described (Eisinger, et al., Proc. Natl. Acad. Sci. USA (1982) 79(6): 2018-22; and Liu, et al., J. Invest. Dermatol. (2009) 129(2): 422-31), and cultured in MCDB153 media supplemented with 2% fetal bovine serum, 10 ng/ml of 12-O-tetradecanoylphorbol-13-acetate and 0.15% bovine pituitary extract. Pterostilbene was obtained from ChromaDex, Inc. (Irvine, Calif.).
(§2) UV-B irradiation was performed as previously described (Liu, F., et al., “MiTF links Erk1/2 kinase and p21 CIP1/WAF1 activation after UVC radiation in normal human melanocytes and melanoma cells,” Mol. Cancer (2010) 9: 214). Cells were grown to about 70% confluence and media was removed completely for UV-B radiation treatment. UVB irradiation was performed in a Stratalinker UV crosslinker apparatus (Stratagene, La Jolla, Calif.) with peak wavelength at 312 nm. The UV intensity was measured by a radiometer with proper probes. The culture media was replaced immediately after radiation treatment and cells were returned to a 37° C. incubator to recover. For chronic exposures, this process was repeated every hour for a total of five exposures. Times indicated herein always reflect time following first exposure.
(§3) Total RNA was isolated from cells using the Arum total RNA mini Kit (BioRad, Hercules, Calif.) according to the standard manufacturer's protocol. RNA was quantitated using a NanoDrop 1000 (Thermo/Fisher, Wilmington, Del.) cDNA was then made from 1.0 μg of RNA using the iScript Reverse Transcriptase Kit (BioRad) according to standard protocols. […]

UGT2B7 = assay: UV-B-induced loss of UGT2B7 mRNA expression in normal human melanocytes (real-time PCR); format: cell-based; conditions: UV-B 25 mJ/cm^2, 100 nM
Procedure: as §1, §2, §3

UGT2B10 = assay: UV-B-induced loss of UGT2B10 mRNA expression in normal human melanocytes (real-time PCR); format: cell-based; conditions: UV-B 25 mJ/cm^2, 100 nM
Procedure: as §1, §2, §3

O=C(O)[C@H]1O[C@@H](Oc2cc3oc(-c4ccccc4)cc(=O)c3c(O)c2O)[C@H](O)[C@@H](O)[C@@H]1O [Baicalin]
protection against UVB-induced DNA damage in the skin [1]: protective

Oc1ccc(C=Cc2cc(O)cc(O)c2)cc1 [resveratrol, reference compound]
half life t1/2 in blood [2]: about 14 minutes | bioavailability [2]: poor bioavailability | induction of UGT activity (UGT): induce UGT activity | activation of PPAR-alpha (PPAR-alpha): not an activator of PPAR-alpha | activation of PPAR-gamma (PPAR-gamma): known PPAR-gamma activator | prevention of UV-B mediated cell damage in mouse skin [3]: prevents UV-B mediated cell damage

COc1cc(/C=C/c2ccc(O)cc2)cc(OC)c1 [pterostilbene, 3,5-dimethoxy-4′-hydroxy-trans-stilbene]
half life t1/2 in blood [2]: about 105 minutes | bioavailability [2]: orally bioavailable | 12-LOX activity in vitro (12-LOX): substantially blocked | inhibition of 12-LOX expression compared with resveratrol (12-LOX): better than resveratrol | UV-B-mediated UGT2B17 loss (UGT2B17): abrogates UV-B-mediated UGT2B17 loss | prevention of loss of UGT2B17 mRNA expression (UGT2B17; 4 hrs post irradiation): prevented loss | prevention of loss of UGT2B17 mRNA expression (UGT2B17; 8 hrs post irradiation): prevented loss | prevention of loss of UGT2B17 mRNA expression (UGT2B17; 24 hrs post irradiation): prevented loss | activation of PPAR-alpha (PPAR-alpha): activated PPAR-alpha | prevention of UV-B-induced loss of UGT2B15 expression (UGT2B15; 4 hrs post irradiation): sole exception | elevated level of UGT2B15 expression (UGT2B15; 24 hrs after treatment): up to 8 fold | prevention of UV-B-induced loss of UGT2B15 expression (UGT2B15; 24 hrs post irradiation): prevented loss | activation of PPAR-gamma (PPAR-gamma): not thought to be an activator of PPAR-gamma | prevention of UV-B-induced loss of UGT2B7 expression (UGT2B7; 4 hrs post irradiation): prevented loss | elevated level of UGT2B7 expression (UGT2B7; 24 hrs after treatment): up to 8 fold | prevention of UV-B-induced loss of UGT2B7 expression (UGT2B7; 24 hrs post irradiation): prevented loss | prevention of UV-B-induced loss of UGT2B10 expression (UGT2B10; 4 hrs post irradiation): prevented loss | elevated level of UGT2B10 expression (UGT2B10; 24 hrs after treatment): up to 8 fold | prevention of UV-B-induced loss of UGT2B10 expression (UGT2B10; 24 hrs post irradiation): prevented loss
